The target in experiment [1] is Mitogen-activated protein kinase 1 (Homo sapiens) (UniProt P28482). Nature of the experiment: phospho-ERK1/2 level change, either direction, late-stage follow-up, counter-screen for KLF5 inhibitor project, HT29 cells, chemiluminescent western blot, powder samples (AID 588655). The following applies: HT29 cells, phospho-ERK1/2 western blot, 24 h; at 10 µM; stronger effect = higher value.

The subject of experiment [2] is HT29 cells, phospho-ERK1/2 western blot, 24 h. Described as above. Conditions: measured here: phospho-ERK fold change vs DMSO; at 10 µM.

Chain of Mitogen-activated protein kinase 1 (Homo sapiens) (P28482 whole entry, looked up): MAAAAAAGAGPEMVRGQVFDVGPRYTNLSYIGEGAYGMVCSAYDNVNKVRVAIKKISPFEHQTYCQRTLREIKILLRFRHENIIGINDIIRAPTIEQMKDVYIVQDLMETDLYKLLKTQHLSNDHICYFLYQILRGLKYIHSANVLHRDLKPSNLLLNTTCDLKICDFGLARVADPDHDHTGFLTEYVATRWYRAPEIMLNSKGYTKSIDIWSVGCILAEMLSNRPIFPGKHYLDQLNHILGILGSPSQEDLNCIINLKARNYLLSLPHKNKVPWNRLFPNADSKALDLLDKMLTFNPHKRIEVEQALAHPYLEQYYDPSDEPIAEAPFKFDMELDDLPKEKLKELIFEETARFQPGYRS

Take `CN(C(=O)CNC(=O)/C=C/c1cccc(Cl)c1)C1CCS(=O)(=O)C1` (stereo unspecified): in experiment [1], the phospho-ERK1/2 band inhibition vs DMSO (stronger effect = higher value) was 34.3%. Further, in experiment [2], the fold change is -1.52.

For the compound `CN(C(=O)COC(=O)/C=C/c1cccc([N+](=O)[O-])c1)C1CCS(=O)(=O)C1` (stereo unspecified), the phospho-ERK1/2 band inhibition vs DMSO (stronger effect = higher value) in experiment [1] was 38.6%. Besides, in experiment [2], the fold change was -1.63.

As for `CN(C(=O)CNC(=O)/C=C/c1cccc(Cl)c1)C1CCS(=O)(=O)CC1`, the phospho-ERK1/2 band inhibition vs DMSO (stronger effect = higher value) in experiment [1] is 50.5%. Moreover, the fold change in experiment [2] was -2.02.

The record behind these values is PubChem BioAssay AID588655 (The Scripps Research Institute Molecular Screening Center, 2011).
